Test results: US20230099344A1, “COMPOUNDS AND METHODS FOR THE TARGETED DEGRADATION OF IRAK-4” (Arvinas Operations, Inc., priority 2021, published 2023)

Key:
Format in all cases: cell-based
IL6 = assay: IL-1β stimulated IL6 inhibition assay in PBMC; conditions: PBMC, human PBMCs, IL-1β stimulation, compound overnight, IL6 by MSD after 24 hrs; for IC50: Homo sapiens, 24 h, read-out: IL1β stim IL6 inhibition IC50; for Emax: read-out: IL1β stim IL6 inhibition Ymax
Method: (§1) IL-1β, LPS, or R848 Stimulated IL6 Inhibition and IL-1β Stimulated IL8 Inhibition Assay
(§2) Human PBMC cells were seeded at 2.0×10^6 cells/mL, treated with compound overnight, and dosed with the EC50 concentration of each stimulant (either IL-1B. LPS, or R848) was determined for each donor. After 24 hrs, media was collected and analyzed by MSD for IL6 and/or IL8 levels.

IL8 = assay: IL-1β stimulated IL8 inhibition assay in PBMC; conditions: human PBMCs, IL-1β stimulation, compound overnight, IL8 by MSD after 24 hrs; for IC50: read-out: IL1β stim IL8 inhibition IC50; for Emax: read-out: IL1β stim IL8 inhibition Ymax
Method: as §1, §2

IRAK-4 [1] = biological target: T1, IRAK-4 (Homo sapiens, UniProt Q9NWZ3); assay: IRAK-4 ELISA, OCI-Ly10 degradation; set-up: endogenous in cells; conditions: treated overnight; for Dmax: OCI-Ly10, OCI-Ly10 cells; for DC50: OCI-Ly10 cells
T1 sequence (Q9NWZ3 1-460): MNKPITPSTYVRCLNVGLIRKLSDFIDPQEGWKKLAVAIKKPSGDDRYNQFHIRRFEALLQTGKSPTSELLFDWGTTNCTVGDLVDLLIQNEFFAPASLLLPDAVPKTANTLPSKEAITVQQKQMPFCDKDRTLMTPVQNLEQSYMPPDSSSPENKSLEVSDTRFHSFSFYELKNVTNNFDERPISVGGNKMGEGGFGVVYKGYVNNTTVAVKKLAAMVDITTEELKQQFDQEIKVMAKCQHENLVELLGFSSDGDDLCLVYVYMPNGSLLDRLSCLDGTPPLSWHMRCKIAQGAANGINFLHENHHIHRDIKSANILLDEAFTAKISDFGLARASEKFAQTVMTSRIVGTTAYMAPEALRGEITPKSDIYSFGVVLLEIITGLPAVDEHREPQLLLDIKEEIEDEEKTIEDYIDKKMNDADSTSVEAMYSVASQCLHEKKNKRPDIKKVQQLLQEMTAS
Summary of the method: (§3)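 Overnight compound treatment, started on the day of plating, of OCI-Ly10 (1×10^6/ml) and PBMC (2×10^6/ml) cultures. Lysates are collected and IRAK-4 content is read by sandwich ELISA.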

IRAK-4 [2] = biological target: T1, IRAK-4; assay: IRAK-4 ELISA, PBMC degradation; set-up: endogenous in cells; host or cells: PBMC; conditions: treated overnight
Summary of the method: as §3

SMILES | IC50 (IL6) [nM] | Emax (IL6) [%] | IC50 (IL8) [nM] | Emax (IL8) [%] | Dmax (IRAK-4 [1]) [%] | DC50 (IRAK-4 [1]) [nM] | DC50 (IRAK-4 [2]) [nM] | Dmax (IRAK-4 [2]) [%] | PBMC DC90 (IRAK-4 [2])
CC(C)Oc1cc2c(cc1NC(=O)c1cnn3cccnc13)CN(C1CCN(C3CN(c4ccc5c(c4)C(=O)N(C4CCC(=O)NC4=O)C5=O)C3)CC1)C2=O (stereo not shown) [Example 59] | 10 to 50 | ≥ 90 | 50 to 100 | 70 to 80 | ≥ 90 | < 10 | 1 to 5 | ≥ 90 | B (B represents a DC90 value ≥10.0 nM and <25.0 nM)
CC(C)Oc1cc2c(cc1NC(=O)c1cnn3cccnc13)CN(C1CCN(C3CCN(c4ccc5c(c4)C(=O)N(C4CCC(=O)NC4=O)C5=O)CC3)CC1)C2=O (stereo not shown) [Example 64] | 10 to 50 | 80 to 90 | 50 to 100 | < 70 | ≥ 90 | < 10 | < 1 | ≥ 90 | A (A represents a DC90 value <10.0 nM)
CC(C)Oc1cc2c(cc1NC(=O)c1cnn3cccnc13)CN([C@H]1CC[C@@H](N3CCN(c4ccc5c(c4)C(=O)N(C4CCC(=O)NC4=O)C5=O)CC3)CC1)C2=O (stereo partly shown) [Example 67] | 10 to 50 | ≥ 90 | ≥ 100 | ≥ 90 |  |  | 1 to 5 | ≥ 90 | C (C represents a DC90 value ≥25.0 nM and <50 nM)
CC(C)Oc1cc2c(cc1NC(=O)c1cnn3cccnc13)CN([C@H]1CC[C@@H](N3CC4(CN(c5ccc6c(c5)C(=O)N(C5CCC(=O)NC5=O)C6=O)C4)C3)CC1)C2=O (stereo partly shown) [Example 69] | 10 to 50 | ≥ 90 | 10 to 50 | 80 to 90 | ≥ 90 | < 10 | 1 to 5 | ≥ 90 | A (A represents a DC90 value <10.0 nM)
O=C1CCC(N2Cc3cc(N4CC(N5CCC(n6cc7cc(NC(=O)c8cnn9cccnc89)c(OCC8CC8)cc7n6)CC5)C4)ccc3C2=O)C(=O)N1 (stereo not shown) [Example 283] | < 10 | ≥ 90 | 10 to 50 | < 70 |  |  | < 1 | ≥ 90 | A (A represents a DC90 value <10.0 nM)
CC(C)Oc1cc2c(cc1NC(=O)c1cnn3cccnc13)CN(C1CCC(N(C)C3CN(c4ccc5c(c4)CN(C4CCC(=O)NC4=O)C5=O)C3)CC1)C2=O (stereo not shown) [Example 314] | < 10 | ≥ 90 | 10 to 50 | 70 to 80 |  |  | < 1 | 80 to 90 | A (A represents a DC90 value <10.0 nM)
CN(C1CN(c2ccc3c(c2)C(=O)N(C2CCC(=O)NC2=O)C3=O)C1)[C@H]1CC[C@H](n2cc3cc(NC(=O)c4cnn5cccnc45)c(OCC4CC4)cc3n2)CC1 (stereo partly shown) [Example 336] | < 10 | ≥ 90 | 10 to 50 | 70 to 80 |  |  | < 1 | ≥ 90 | A (A represents a DC90 value <10.0 nM)
CC(C)Oc1nc2c(cc1NC(=O)c1cnn3cccnc13)CN(C1CCN(CC3CN(c4ccc5c(c4)C(=O)N(C4CCC(=O)NC4=O)C5=O)C3)CC1)C2=O (stereo not shown) [Example 398] | < 10 | ≥ 90 | ≥ 100 |  |  |  | < 1 | ≥ 90 | A (A represents a DC90 value <10.0 nM)
CC(C)Oc1nc2c(cc1NC(=O)c1cnn3cccnc13)CN(C1CCN(CCc3ccc4c(c3)C(=O)N(C3CCC(=O)NC3=O)C4=O)CC1)C2=O (stereo not shown) [Example 400] | ≥ 100 | ≥ 90 | ≥ 100 |  |  |  | 5 to 10 | 80 to 90 | D (D represents a DC90 value ≥50 nM)
